Like-named read-outs stand apart in the source and are kept apart here.
How the values were obtained:
[1] = system: Aphis craccivora; assay: B-6 contact action on infested pea seedlings; assay type: in vivo; conditions: for mortality at 25 ppm: Aphis craccivora, 72 h, read-out: Abtötung
Text: B-6. Kontaktwirkung auf Aphis craccivora
Erbsenkeimlinge, die mit sämtlichen Entwicklungsstadien der Laus infiziert sind, werden mit einer aus einem Emulsionskonzentrat hergestellten Wirkstofflösung besprüht, die wahlweise 50 ppm, 25 ppm oder 12,5 ppm Wirkstoff enthält. Nach 3 Tagen wird auf mehr als 80 % tote bzw. abgefallene Blattläuse ausgewertet. Nur bei dieser Wirkungshöhe wird ein Präparat als wirksam eingestuft.

[2] = system: Spodoptera littoralis; assay: B-1 insecticidal stomach-poison action on sprayed cotton plants; assay type: in vivo; conditions: 12,5 ppm active ingredient, after 24 hours, L1 larvae on cotton plants
Protocol: B-1. Insektizide Frassgift-Wirkung bei Spodoptera littoralis
Eingetopfe Baumwollpflanzen im 5-Blatt-Stadium werden mit einer acetonisch/wässrigen Versuchslösung besprüht, die 3, 12,5 oder 50 ppm der zu prüfenden Verbindung enthält.
Nach dem Antrocknen des Belags werden die Pflanzen mit ca. 30 Larven (L₁-Stadium) von Spodoptera littoralis besetzt. Pro Versuchsverbindung und pro Test-Spezies verwendet man zwei Pflanzen. Der Versuch wird bei ca. 24°C und 60 % relativer Luftfeuchtigkeit durchgeführt Auswertungen und Zwischenauswertungen auf moribunde Tiere, Wachstum und Larven und Frasschäden erfolgen nach 24 Stunden, 48 Stunden und 72 Stunden.

[3] = system: L₁-Larven von Lucilia sericata; assay: B-3 action against L1 larvae in larval culture medium; assay type: in vivo; conditions: 96 h, reduced concentration of 100 ppm, after 4 days, read-out: Wirkung (Mortalitätsrate)
Protocol: B-3. Wirkung gegen L₁-Larven von Lucilia sericata
1 ml einer wässrigen Suspension der zu prüfenden Aktivsubstanz werden so mit 3 ml eines speziellen Larvenzuchtmediums bei ca. 50°C vermischt, dass ein Homogenisat von wahlweise 250 ppm oder […] Wirkstoffgehalt entsteht. In jede Reagenzglas-Probe werden ca. 30 Lucilia-Larven (L₁) eingesetzt. Nach 4 Tagen wird die Mortalitätsrate bestimmt. Die Verbindungen aus den Herstellungsbeispielen zeigen bei 250 ppm eine Wirkung von 100 %, wobei die Verbindungen aus den Herstellungsbeispiele, wie z.B. E8, E6, E2, E14, E22, E28, E26, E30, E32, E34, E36 und E38, diese Wirkung auch noch bei der reduzierten Wirkstoffkonzentration von 100 ppm erzielten.

[4] = system: Haemonchus concortus und Trichostrongylus colubriformis; assay: B-5 test on nematode-infected sheep, worm egg count in faeces; assay type: in vivo, Schafen; conditions: single dose 0,5 mg/kg by stomach tube or intraruminal injection
Protocol: B-5. Versuch an mit Nematoden (Haemonchus concortus und Trichostrongylus colubriformis) infizierten Schafen
Der Wirkstoff wird als Suspension formuliert mit einer Magensonde oder durch Injektion in den Pansen eines Schafes gegeben, das mit Haemonchus concortus und Trychostrongylus colubriformis künstlich infiziert worden ist. Pro Dosis werden 1 bis 3 Tiere verwendet. Jedes Schaf wird nur einmal mit einer einzigen Dosis behandelt, und zwar wahlweise mit 1 mg oder 0,5 mg/kg Körpergewicht. Die Evaluierung erfolgt durch Vergleich der Anzahl der vor und nach Behandlung im Kot der Schafe ausgeschiedenen Wurmeier.
Gleichzeitig und gleichartig infizierte aber unbehandelte Schafe dienen als Kontrolle. […] Verbindungen aus den Herstellungsbeispielen, wie. z.B. E4, E8, E14, E18, E30 bis E32, E 34 und E36, bewirkten dies auch noch bei 0,5 mg/kg.

[5] = system: Meloidogyne incognita; assay: B-8 soil nematicidal action on tomato plants, root-knot index; assay type: in vivo; conditions: 0,002 % active substance relative to soil volume, after 4 weeks; result in words
Protocol: B-8. Bodennematizide Wirkung gegen Meloidogyne incognita
Eier von Meloidogyne incognita werden in Sand eingemischt. Dieses Gemisch wird dann in 200 ml fassende Tontöpfe eingebracht (5000 Eier pro Topf). Am gleichen Tag wird pro Topf eine 3 Wochen alte Tomatenpflanze gepflanzt und der formulierte Wirkstoffe mittels Druckapplikation in die Töpfe hineingegeben (0,002 % Aktivsubstanz bezogen auf das Bodenvolumen). Die eingetopften Pflanzen werden nun bei einer Temperatur von 26±1°C und einer relativen Luftfeuchtigkeit von 60 % in einem Gewächshaus aufgestellt. Nach Ablauf von 4 Wochen erfolgt eine Evaluierung durch Untersuchung der Pflanzen auf Wurzelgallbildung nach dem sogenannten Wurzelgall-Index ("Knot Index").

[6] = system: Aedes aegypti; assay: B-7 larvicidal action in water; assay type: in vivo; conditions: 3,3 ppm, after one day
Protocol: B-7. Larvizidwirkung gegen Aedes aegypti
Auf die Oberfläche von 150 ml Wasser, das sich in einem Behälter befindet, wird soviel einer 0,1 %igen acetonischen Lösung des Wirkstoffes pipettiert, dass Konzentrationen von wahlweise 10 ppm, 3,3 ppm und 1,6 ppm erhalten werden. Nach Verdunsten des Acetons wird der Behälter mit ca. 30-40 3 Tage alten Aedes-Larven beschickt. Nach 1, 2 und 5 Tagen wird die Mortalität geprüft.

[7] = system: Dermanyssus gallinae; assay: B-4 miticidal action, wetting test in glass container; assay type: in vivo; conditions: 72 h, observed for three days, read-out: Wirkung (Mortalität)
Protocol: B-4. Milbizide Wirkung gegen Dermanyssus gallinae
2 bis 3 ml einer Testlösung (100, 10, 1 und 0,1 ppm Aktivsubstanz) werden in einem nach oben offenen Glasbehälter gegeben und ca. 200 Milben in unterschiedlichen Entwicklungstadien in diesen Behälter eingesetzt. Der Glasbehälter wird mit einem Wattebausch verschlossen und 10 Minuten gleichmässig, bis zur vollständigen Benetzung der Milben geschüttelt. Danach wird der Behälter umgekehrt hingestellt, bis die überschüssige Testlösung von der Watte aufgesogen ist. Der Behälter wird erneut gekehrt und die behandelten Zecken zur Evaluierung der Wirksamkeit der Testsubstanzen drei Tage unter Laborbedingungen beobachtet, wobei die Mortalität als Massstab für Wirksamkeit herangezogen wird.

[8] = system: OP-sensible Tetranychus urticae; assay: B-2 action against plant-damaging acarids on bean plants; assay type: in vivo; conditions: 1,6 ppm active ingredient, evaluation after seven days
Text: B-2. Wirkung gegen pflanzenschädigende Akariden OP-sensible Tetranychus urticae
Die Primärblätter von Bohnenpflanzen (Phaseolus vulgaris) werden 16 Stunden vor dem Versuch mit einem durch T. urticae infestierten, aus einer Massenzucht stammenden Blattstück belegt. Die so mit allen Milben-Stadien infestierten Pflanzen werden nach Entfernung des Blattstücks mit einer Versuchslösung bis zur Tropfnässe besprüht, die wahlweise 0,4 ppm oder 1,6 ppm der zu prüfenden Verbindung enthält. Die Temperatur in der Gewächshauskabine beträgt ca. 25°C.
Nach sieben Tagen wird unter dem Binokular auf Prozentsatz mobiler Stadien (Adulte und Nymphen) und auf vorhandene Eier ausgewertet.

| SMILES | Abtötung [2] | mortality at 100 ppm [3] [%] | Nematodenbefall (Reduktion der Wurmeier im Kot) [4] | other results |
| --- | --- | --- | --- | --- |
| CCC1OC2(CCC1C)CC1CC(CC=C(C)C(OC(=O)NC3CCCCC3)C(C)C=CC=C3COC4C(O)C(C)=CC(C(=O)O1)C34O)O2 (stereo not drawn) [Beispiel E12, 13β-N-Cyclohexylcarbamoyloxy-milbemycin A₄] | vollständige Abtötung | – | – | Abtötung ([1]; 25 ppm, after 3 days): 100% |
| CCC1OC2(CCC1C)CC1CC(CC=C(C)C(OC(=O)Nc3ccccc3)C(C)C=CC=C3COC4C(O)C(C)=CC(C(=O)O1)C34O)O2 (stereo not drawn) [Beispiel E6, 13β-N-Phenyl-carbamoyloxy-milbemycin A₄] | vollständige Abtötung | 100 | – | – |
| CCC1OC2(CCC1C)CC1CC(CC=C(C)C(OC(=O)NCc3ccccc3)C(C)C=CC=C3COC4C(O)C(C)=CC(C(=O)O1)C34O)O2 (stereo not drawn) [Beispiel E28, 13β-N-Benzyl-carbamoyloxy-milbemycin A₄] | – | 100 | – | – |
| CCNC(=O)O[C@H]1/C(C)=C/C[C@@H]2C[C@@H](C[C@]3(CC[C@H](C)[C@@H](CC)O3)O2)OC(=O)[C@@H]2C=C(C)[C@@H](O)[C@H]3OC/C(=C\C=C\[C@@H]1C)[C@]32O [Beispiel E18, 13β-N-Ethyl-carbamoyloxy-milbemycin A₄] | – | – | komplette Reduktion der Wurmeier im Kot | Wirksamkeit gegen Meloidogyne incognita (Reduktion der Wurzelgallbildung) [5]: besonders aktiv |
| CCC1OC2(CCC1C)CC1CC(CC=C(C)C(OC(=O)Nc3ccc(Br)cc3)C(C)C=CC=C3COC4C(O)C(C)=CC(C(=O)O1)C34O)O2 (stereo not drawn) [Beispiel E14, 13β-N-(4-Bromphenyl)carbamoyloxy-milbemycin A₄] | vollständige Abtötung | 100 | komplette Reduktion der Wurmeier im Kot | Abtötung sämtlicher Larven [6]: vollständige Abtötung; mortality at 25 ppm ([1]; 25 ppm, after 3 days): 100% |
| CCC1OC2(CCC1C)CC1CC(CC=C(C)C(OC(=O)NC(C)C)C(C)C=CC=C3COC4C(O)C(C)=CC(C(=O)O1)C34O)O2 (stereo not drawn) [Beispiel E26, 13β-Isopropyl-carbamoyloxy-milbemycin A₄] | – | 100 | – | mortality at 10 ppm [7]: 100% |
| CCc1ccccc1NC(=O)OC1C(C)=CCC2CC(CC3(CCC(C)C(CC)O3)O2)OC(=O)C2C=C(C)C(O)C3OCC(=CC=CC1C)C23O (stereo not drawn) [Beispiel E36, 13β-N-(2-Ethylphenyl)-carbamoyloxy-milbemycin A₄] | – | 100 | komplette Reduktion der Wurmeier im Kot | – |
| CCC1OC2(CCC1C)CC1CC(CC=C(C)C(OC(=O)Nc3ccccc3[N+](=O)[O-])C(C)C=CC=C3COC4C(O)C(C)=CC(C(=O)O1)C34O)O2 (stereo not shown) [Beispiel E38] | – | 100 | – | – |
| CNC(=O)OC1C(C)=CCC2CC(CC3(CCC(C)C(C(C)C)O3)O2)OC(=O)C2C=C(C)C(O)C3OCC(=CC=CC1C)C23O (stereo not drawn) [Beispiel E10, 13β-N-Methylcarbamoyloxy-milbemycin D] | vollständige Abtötung | – | – | Wirksamkeit gegen Meloidogyne incognita (Reduktion der Wurzelgallbildung) [5]: besonders aktiv; mortality at 25 ppm [1]: 100%; mortality at 10 ppm [7]: 100% |
| CC[C@H]1O[C@]2(CC[C@@H]1C)C[C@@H]1C[C@@H](C/C=C(\C)[C@H](OC(=O)NC(C)(C)C)[C@@H](C)/C=C/C=C3\CO[C@@H]4[C@H](O)C(C)=C[C@@H](C(=O)O1)[C@]34O)O2 [Beispiel E4, 13β-N-tert.-Butyl-carbamoyloxy-milbemycin A₄] | vollständige Abtötung | – | komplette Reduktion der Wurmeier im Kot | Abtötung sämtlicher Larven [6]: vollständige Abtötung |
| CCC1OC2(CCC1C)CC1CC(CC=C(C)C(OC(=O)NC(C)c3ccccc3)C(C)C=CC=C3COC4C(O)C(C)=CC(C(=O)O1)C34O)O2 [Beispiel E30, 13β-N-((S)-1-Phenylethyl)-carbamoyloxy-milbemycin A₄] | – | 100 | – | – |
| CCC1OC2(CCC1C)CC1CC(CC=C(C)C(OC(=O)Nc3ccccc3Br)C(C)C=CC=C3COC4C(O)C(C)=CC(C(=O)O1)C34O)O2 (stereo not drawn) [Beispiel E34, 13β-N-(2-Bromphenyl)-carbamoyloxy-milbemycin A₄] | – | 100 | komplette Reduktion der Wurmeier im Kot | – |
| CCC1OC2(CCC1C)CC1CC(CC=C(C)C(OC(=O)Nc3ccccc3C(F)(F)F)C(C)C=CC=C3COC4C(O)C(C)=CC(C(=O)O1)C34O)O2 (stereo not drawn) [Beispiel E22, 13β-N-(2-Trifluorphenyl)-carbamoyloxy-milbemycin A₄] | vollständige Abtötung | 100 | – | Abtötung [8]: vollständige Abtötung; Abtötung sämtlicher Larven [6]: vollständige Abtötung; mortality at 25 ppm ([1]; 25 ppm, after 3 days): 100% |
| CC[C@H]1O[C@]2(CC[C@@H]1C)C[C@@H]1C[C@@H](C/C=C(\C)[C@H](OC(=O)Nc3ccc([N+](=O)[O-])cc3)[C@@H](C)/C=C/C=C3\CO[C@@H]4[C@H](O)C(C)=C[C@@H](C(=O)O1)[C@]34O)O2 [Beispiel E20, 13β-N-(4-Nitrophenyl)-carbamoyloxy-milbemycin A₄] | – | – | – | Abtötung [8]: vollständige Abtötung; Abtötung sämtlicher Larven [6]: vollständige Abtötung |
| CCC1OC2(CCC1C)CC1CC(CC=C(C)C(OC(=O)N(C(C)C)C(C)C)C(C)C=CC=C3COC4C(O)C(C)=CC(C(=O)O1)C34O)O2 (stereo not drawn) [Beispiel E8, 13β-N,N-Diisopropyl-carbamoyloxy-milbemycin A₄] | – | 100 | komplette Reduktion der Wurmeier im Kot | Abtötung sämtlicher Larven [6]: vollständige Abtötung; mortality at 25 ppm ([1]; 25 ppm, after 3 days): 100%; mortality at 10 ppm [7]: 100% |
| CCC1OC2(CCC1C)CC1CC(CC=C(C)C(OC(=O)NC)C(C)C=CC=C3COC4C(O)C(C)=CC(C(=O)O1)C34O)O2 (stereo not drawn) [Beispiel E2, 13β-N-Methyl-carbamoyloxy-milbemycin A₄] | – | 100 | – | Wirksamkeit gegen Meloidogyne incognita (Reduktion der Wurzelgallbildung) [5]: besonders aktiv |
| CC[C@H]1O[C@]2(CC[C@@H]1C)C[C@@H]1C[C@@H](C/C=C(\C)[C@H](OC(=O)N(C)C)[C@@H](C)/C=C/C=C3\CO[C@@H]4[C@H](O)C(C)=C[C@@H](C(=O)O1)[C@]34O)O2 [Beispiel E16, 13β-N,N-Dimethyl-carbamoyloyx-milbemycin A₄] | vollständige Abtötung | – | – | Wirksamkeit gegen Meloidogyne incognita (Reduktion der Wurzelgallbildung) [5]: besonders aktiv |

— patent EP0239528A1, “13-Beta-carbamoyloxy-milbemicyne derivatives for fighting harmful animal and plant parasites” (CIBA-GEIGY AG, priority 1986, dated 1987)
